Literature values as cited in patent US20150216993A1 (priority 2012, published 2015).

Tested on: organophosphate poisoning
Settings: in vivo

Question: Which “window of time in which the therapeutic is effective” value does the source give for O/N=C/c1cc[n+](COC[n+]2ccc(/C=N/O)cc2)cc1 [obidoxime, obidoxime chloride] here?
Answer: about 10 minutes
